# According to patent publication US8501238B2, “Anti-infective agents and uses thereof” (priority 2007, dated 2013):
# Experiments:
# [1] = biological target: T1, HCV polymerase 1A (Δ21 NS5B) (Hepatitis C virus genotype 1a, UniProt P27958); experiment: HCV Polymerase Inhibition Assay (1a); format: biochemical
# T1 construct: 20 to 50nM Δ21 NS5B
# Procedure: The reaction was initiated by the addition of 20μM CTP, 20μM ATP, 1μM ^3H-UTP (10mCi/umol), 5nM template RNA and 0.1 U/μl RNase inhibitor (RNasin, Promega), and allowed to proceed for 2 to 4h at room temperature. Reaction volume was 50μl. The reaction was terminated by the addition of 1 volume of 4mM spermine in 10mM Tris-Cl pH 8.0, 1mM EDTA. After incubation for at least 15 min at room temperature, the precipitated RNA was captured by filtering through a GF/B filter (Millipore) in a 96 well format. The filter plate was washed three times with 200μl each of 2mM spermine, 10mM Tris-Cl pH 8.0, lmM EDTA, and 2 times with ethanol. After air-drying, 30μl of Microscint 20 scintillation cocktail (Packard) was added to each well, and the retained cpm were determined by scintillation counting. […] Retained cpm were plotted vs. inhibitor concentration and fit to equation 1 using non-linear regression (ref. 1) to obtain the IC50 values: Retained cpm=A[sqrt{(IC50+It−Et)^2+4*IC50*Et}−([…])]
# Ref. Morrison, J. F. and S. R. Stone. […] Approaches to the study and analysis of the inhibition of enzymes by slow- and tight-binding inhibitors. Comments Mol. Cell. Biophys.
# (§1) The sequence of the template RNA used was: 5′-[…]-3′
# [2] = biological target: T2, HCV polymerase 1B (Δ21 NS5B) (Hepatitis C virus genotype 1b, UniProt P26663); experiment: biochemical
# T2 construct: 20 to 50nM Δ21 NS5B
# Procedure: Either two-fold serial dilutions (fractional inhibition assay) or a narrower range of dilutions spanning the IC50 of the inhibitor (tight binding assay) of the inhibitors were incubated with 20mM Tris-Cl pH 7.4, 2 mM MnCl2, 1 mM dithiothreitol, 1 mM ethylene diamine tetraacetic acid (EDTA), 60 to 125μM GTP and 20 to 50nM Δ21 NS5B (HCV Strain 1B (BK, Genbank accession number M58335, or H77, Genbank accession number AF011751)) for 15min at room temperature. The reaction was initiated by the addition of 20μM CTP, 20μM ATP, 1μM ^3H-UTP (10mCi/umol), 5nM template RNA and 0.1 U/μl RNase inhibitor (RNasin, Promega), and allowed to proceed for 2 to 4h at room temperature. Reaction volume was 50μl. The reaction was terminated by the addition of 1 volume of 4mM spermine in 10mM Tris-Cl pH 8.0, 1mM EDTA. After incubation for at least 15 min at room temperature, the precipitated RNA was captured by filtering through a GF/B filter (Millipore) in a 96 well format. The filter plate was washed three times with 200μl each of 2mM spermine, 10mM Tris-Cl pH 8.0, lmM EDTA, and 2 times with ethanol. After air-drying, 30μl of Microscint 20 scintillation cocktail (Packard) was added to each well, and the retained cpm were determined by scintillation counting. […] Retained cpm were plotted vs. inhibitor concentration and fit to equation 1 using non-linear regression (ref. 1) to obtain the IC50 values: Retained cpm=A[sqrt{(IC50+It−Et)^2+4*IC50*Et}−([…])]
# Ref. Morrison, J. F. and S. R. Stone. 1985. Approaches to the study and analysis of the inhibition of enzymes by slow- and tight-binding inhibitors. Comments Mol. Cell. Biophys. 2: 347-368.
# as §1
# [3] = tested on: genotype 1a-H77 subgenomic replicon cell line; experiment: microbe, parasite or virus in culture; format: cell-based, HCV; conditions: Hepatitis C virus, 72 h, read-out: EC50 1a
# [4] = tested on: genotype 1b-Con1 subgenomic replicon cell line; experiment: microbe, parasite or virus in culture; format: cell-based, HCV; conditions: Hepatitis C virus, 72 h, read-out: EC50 1b
# T1 sequence (P27958 2421-2990, stated change not applied): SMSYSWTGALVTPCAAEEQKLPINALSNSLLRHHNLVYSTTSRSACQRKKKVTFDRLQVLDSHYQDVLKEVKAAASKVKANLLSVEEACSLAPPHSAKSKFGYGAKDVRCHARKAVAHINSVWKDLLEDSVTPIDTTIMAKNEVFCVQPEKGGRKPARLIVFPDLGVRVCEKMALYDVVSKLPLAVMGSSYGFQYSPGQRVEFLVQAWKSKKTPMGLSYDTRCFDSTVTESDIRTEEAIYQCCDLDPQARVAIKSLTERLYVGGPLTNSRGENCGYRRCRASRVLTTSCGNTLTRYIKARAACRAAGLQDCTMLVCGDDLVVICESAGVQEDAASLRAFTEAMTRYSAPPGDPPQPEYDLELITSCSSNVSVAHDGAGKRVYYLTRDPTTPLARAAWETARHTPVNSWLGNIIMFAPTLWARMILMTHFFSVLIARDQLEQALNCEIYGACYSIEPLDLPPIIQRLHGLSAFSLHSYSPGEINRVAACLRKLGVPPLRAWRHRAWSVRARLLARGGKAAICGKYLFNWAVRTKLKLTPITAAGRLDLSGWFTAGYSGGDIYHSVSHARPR
# T2 sequence (P26663 2420-2989, stated change not applied): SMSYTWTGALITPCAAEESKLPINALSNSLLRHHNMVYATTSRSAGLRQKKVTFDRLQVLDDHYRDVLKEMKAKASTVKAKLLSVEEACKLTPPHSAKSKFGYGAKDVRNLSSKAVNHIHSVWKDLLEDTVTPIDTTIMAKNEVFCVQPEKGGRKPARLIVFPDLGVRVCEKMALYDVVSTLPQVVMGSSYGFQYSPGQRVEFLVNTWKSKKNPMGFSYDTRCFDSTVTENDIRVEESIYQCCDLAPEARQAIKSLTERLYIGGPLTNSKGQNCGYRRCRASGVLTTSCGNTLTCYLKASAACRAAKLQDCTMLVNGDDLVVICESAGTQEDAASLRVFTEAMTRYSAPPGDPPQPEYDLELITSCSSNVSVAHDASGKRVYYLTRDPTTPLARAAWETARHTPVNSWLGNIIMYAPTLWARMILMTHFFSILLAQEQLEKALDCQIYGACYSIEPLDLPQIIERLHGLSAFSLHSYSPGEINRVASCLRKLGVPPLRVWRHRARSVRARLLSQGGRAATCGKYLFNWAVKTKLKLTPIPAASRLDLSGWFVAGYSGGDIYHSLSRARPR
compound,measurement,setting,value
"COc1c(NS(C)(=O)=O)cc(-n2ccc(=O)[nH]c2=O)cc1-c1ccc2cc(NS(C)(=O)=O)ccc2c1 [IB-L0-2.75, N-(5-(2,4-dioxo-3,4-dihydropyrimidin-1(2H)-yl)-2-methoxy-3-(6-(methylsulfonamido)naphthalen-2-yl)phenyl)methanesulfonamide]",IC50,[1],100 to 1000 nM
same,IC50,[2],> 1000 nM
same,EC50,[3],> 1000 nM
same,EC50,[4],> 1000 nM
"COc1c(-c2ccc3c(c2)CNC3=O)cc(-n2ccc(=O)[nH]c2=O)cc1C(C)(C)C [IB-L0-2.30, 1-(3-tert-butyl-4-methoxy-5-(1-oxoisoindolin-5-yl)phenyl)-pyrimidine-2,4(1H,3H)-dione]",IC50,[1],10 to 100 nM
same,IC50,[2],10 to 100 nM
same,EC50,[3],100 to 1000 nM
same,EC50,[4],10 to 100 nM
"COC(=O)c1cc(-n2ccc(=O)[nH]c2=O)cc(-c2ccc3cc(NS(C)(=O)=O)ccc3c2)c1OC [IB-L0-2.72, methyl 5-(2,4-dioxo-3,4-dihydropyrimidin-1(2H)-yl)-2-methoxy-3-(6-(methylsulfonamido)naphthalen-2-yl)benzoate]",IC50,[1],100 to 1000 nM
same,IC50,[2],100 to 1000 nM
same,EC50,[3],> 1000 nM
same,EC50,[4],100 to 1000 nM
"COc1c(-c2ccc3c(c2)/C(=N/NS(C)(=O)=O)CC3)cc(-n2ccc(=O)[nH]c2=O)cc1-c1cccs1 [IB-L0-2.51, (E)-N′-(6-(5-(2,4-dioxo-3,4-dihydropyrimidin-1(2H)-yl)-2-methoxy-3-(thiophen-2-yl)phenyl)-2,3-dihydro-1H-inden-1-ylidene)methanesulfonohydrazide]",IC50,[1],< 10 nM
same,IC50,[2],10 to 100 nM
same,EC50,[3],10 to 100 nM
same,EC50,[4],< 10 nM
"COc1c(-c2ccc3cc(NS(C)(=O)=O)ccc3c2)cc(-n2ccc(=O)[nH]c2=O)cc1C(C)(C)C [IB-L0-2.3, N-(6-(3-tert-butyl-5-(2,4-dioxo-3,4-dihydropyrimidin-1(2H)-yl)-2-methoxyphenyl)naphthalen-2-yl)methanesulfonamide]",IC50,[1],< 10 nM
same,IC50,[2],< 10 nM
same,EC50,[3],< 10 nM
same,EC50,[4],< 10 nM
"COc1c(-c2ccc3cc(NS(C)(=O)=O)ccc3c2)cc(-n2ccc(=O)[nH]c2=O)cc1-c1ccc(C)s1 [IB-L0-2.73, N-(6-(5-(2,4-dioxo-3,4-dihydropyrimidin-1(2H)-yl)-2-methoxy-3-(5-methylthiophen-2-yl)phenyl)naphthalen-2-yl)methanesulfonamide]",IC50,[1],100 to 1000 nM
same,IC50,[2],100 to 1000 nM
same,EC50,[3],100 to 1000 nM
same,EC50,[4],100 to 1000 nM
"COc1c(I)cc(-n2ccc(=O)[nH]c2=O)cc1-c1ccc2cc(NS(C)(=O)=O)ccc2c1 [IB-L0-2.57, N-(6-(5-(2,4-dioxo-3,4-dihydropyrimidin-1(2H)-yl)-3-iodo-2-methoxyphenyl)naphthalen-2-yl)methanesulfonamide]",IC50,[1],< 10 nM
same,IC50,[2],10 to 100 nM
same,EC50,[3],100 to 1000 nM
same,EC50,[4],10 to 100 nM
"COc1c(N2Cc3ccc(NS(C)(=O)=O)cc3C2)cc(-n2ccc(=O)[nH]c2=O)cc1C(C)(C)C [IB-L0-2.79, N-(2-(3-tert-butyl-5-(2,4-dioxo-3,4-dihydropyrimidin-1(2H)-yl)-2-methoxyphenyl)isoindolin-5-yl)methanesulfonamide]",IC50,[1],10 to 100 nM
same,IC50,[2],10 to 100 nM
same,EC50,[3],100 to 1000 nM
same,EC50,[4],100 to 1000 nM
"COc1c(-c2ccc3nc(N)sc3c2)cc(-n2ccc(=O)[nH]c2=O)cc1C(C)(C)C [IB-L0-2.27, 1-(3-(2-aminobenzo[d]thiazol-6-yl)-5-tert-butyl-4-methoxy-phenyl)pyrimidine-2,4(1H,3H)-dione]",IC50,[1],10 to 100 nM
same,IC50,[2],10 to 100 nM
same,EC50,[3],100 to 1000 nM
same,EC50,[4],10 to 100 nM
"COc1c(-c2nc3ccccc3s2)cc(N2CCC(=O)NC2=O)cc1C(C)(C)C [IA-L0-2.3, 1-(3-(benzo[d]thiazol-2-yl)-5-tert-butyl-4-methoxyphenyl)dihydro pyrimidine-2,4(1H,3H)-dione]",IC50,[1],100 to 1000 nM
same,IC50,[2],100 to 1000 nM
same,EC50,[3],100 to 1000 nM
same,EC50,[4],100 to 1000 nM
"COCC(C)(C)c1cc(-n2ccc(=O)[nH]c2=O)cc(-c2ccc3cc(NS(C)(=O)=O)ccc3c2)c1OC [IB-L0-2.66, N-(6-(5-(2,4-dioxo-3,4-dihydropyrimidin-1(2H)-yl)-2-methoxy-3-(1-methoxy-2-methylpropan-2-yl)phenyl)naphthalen-2-yl)methanesulfonamide]",IC50,[1],10 to 100 nM
same,IC50,[2],10 to 100 nM
same,EC50,[3],100 to 1000 nM
same,EC50,[4],10 to 100 nM
"COc1c(-c2nc3ccc(NS(C)(=O)=O)cc3o2)cc(N2CCC(=O)NC2=O)cc1C(C)(C)C [IA-L0-2.5, N-(2-(3-tert-butyl-5-(2,4-dioxotetrahydropyrimidin-1(2H)-yl)-2-methoxyphenyl)benzo[d]oxazol-6-yl)methanesulfonamide]",IC50,[1],100 to 1000 nM
same,IC50,[2],100 to 1000 nM
same,EC50,[3],> 1000 nM
same,EC50,[4],> 1000 nM
"COc1c(-c2ccc3nc(Cl)sc3c2)cc(-n2ccc(=O)[nH]c2=O)cc1C(C)(C)C [IB-L0-2.38, 1-(3-tert-butyl-5-(2-chlorobenzo[d]thiazol-6-yl)-4-methoxyphenyl)pyrimidine-2,4(1H,3H)-dione]",IC50,[1],100 to 1000 nM
same,IC50,[2],10 to 100 nM
same,EC50,[3],> 1000 nM
same,EC50,[4],> 1000 nM
"COc1c(-c2nc3cc([N+](=O)[O-])ccc3o2)cc(N2CCC(=O)NC2=O)cc1C(C)(C)C [IA-L0-2.7, 1-(3-tert-butyl-4-methoxy-5-(5-nitrobenzo[d]oxazol-2-yl)phenyl) dihydropyrimidine-2,4(1H,3H)-dione]",IC50,[1],100 to 1000 nM
same,IC50,[2],100 to 1000 nM
same,EC50,[3],> 1000 nM
same,EC50,[4],100 to 1000 nM
"COc1c(-c2ccoc2)cc(-n2ccc(=O)[nH]c2=O)cc1-c1ccc2cc(NS(C)(=O)=O)ccc2c1 [IB-L0-2.64, N-(6-(5-(2,4-dioxo-3,4-dihydropyrimidin-1(2H)-yl)-3-(furan-3-yl)-2-methoxyphenyl)naphthalen-2-yl)methanesulfonamide]",IC50,[1],10 to 100 nM
same,IC50,[2],10 to 100 nM
same,EC50,[3],100 to 1000 nM
same,EC50,[4],< 10 nM
"COc1c(-c2ccsc2)cc(-n2ccc(=O)[nH]c2=O)cc1-c1ccc2cc(NS(C)(=O)=O)ccc2c1 [IB-L0-2.53, N-(6-(5-(2,4-dioxo-3,4-dihydropyrimidin-1(2H)-yl)-2-methoxy-3-(thiophen-3-yl)phenyl)naphthalen-2-yl)methanesulfonamide]",IC50,[1],< 10 nM
same,IC50,[2],10 to 100 nM
same,EC50,[3],10 to 100 nM
same,EC50,[4],10 to 100 nM
"COc1c(-c2ccccc2)cc(-n2ccc(=O)[nH]c2=O)cc1-c1ccc2cc(NS(C)(=O)=O)ccc2c1 [IB-L0-2.71, N-(6-(5-(2,4-dioxo-3,4-dihydropyrimidin-1(2H)-yl)-2-methoxy-biphenyl-3-yl)naphthalen-2-yl)methanesulfonamide]",IC50,[1],100 to 1000 nM
same,IC50,[2],100 to 1000 nM
same,EC50,[3],100 to 1000 nM
same,EC50,[4],10 to 100 nM
"COc1c(-c2ccc3ncsc3c2)cc(-n2ccc(=O)[nH]c2=O)cc1C(C)(C)C [IB-L0-2.33, 1-(3-(benzo[d]thiazol-6-yl)-5-tert-butyl-4-methoxyphenyl)pyrimidine-2,4(1H,3H)-dione]",IC50,[1],10 to 100 nM
same,IC50,[2],10 to 100 nM
same,EC50,[3],100 to 1000 nM
same,EC50,[4],100 to 1000 nM
"COc1c(-c2nc3cc(NS(C)(=O)=O)ccc3o2)cc(-n2ccc(=O)[nH]c2=O)cc1C(C)(C)C [IB-L0-2.6, N-(2-(3-tert-butyl-5-(2,4-dioxo-3,4-dihydropyrimidin-1(2H)-yl)-2-methoxyphenyl)benzo[d]oxazol-5-yl)methanesulfonamide]",IC50,[1],10 to 100 nM
same,IC50,[2],10 to 100 nM
same,EC50,[3],100 to 1000 nM
same,EC50,[4],10 to 100 nM
"COc1c(-c2nc3ccc([N+](=O)[O-])cc3o2)cc(N2CCC(=O)NC2=O)cc1C(C)(C)C [IA-L0-2.6, 1-(3-tert-butyl-4-methoxy-5-(6-nitrobenzo[d]oxazol-2-yl)phenyl) dihydropyrimidine-2,4(1H,3H)-dione]",IC50,[1],100 to 1000 nM
same,IC50,[2],100 to 1000 nM
same,EC50,[3],> 1000 nM
same,EC50,[4],> 1000 nM
